Measured values: US8829030B2 (priority 2002, dated 2014)

The molecules below were run against recombinant HCV RNA-dependent RNA polymerase (NS5B protein) (Hepatitis C virus genotype 1b, UniProt P26663) (assay: biochemical). Conditions: not given.
Set-up: species or system HCV-Bk strain

recombinant HCV RNA-dependent RNA polymerase (NS5B protein), sequence (P26663 2420-3010 limits assumed): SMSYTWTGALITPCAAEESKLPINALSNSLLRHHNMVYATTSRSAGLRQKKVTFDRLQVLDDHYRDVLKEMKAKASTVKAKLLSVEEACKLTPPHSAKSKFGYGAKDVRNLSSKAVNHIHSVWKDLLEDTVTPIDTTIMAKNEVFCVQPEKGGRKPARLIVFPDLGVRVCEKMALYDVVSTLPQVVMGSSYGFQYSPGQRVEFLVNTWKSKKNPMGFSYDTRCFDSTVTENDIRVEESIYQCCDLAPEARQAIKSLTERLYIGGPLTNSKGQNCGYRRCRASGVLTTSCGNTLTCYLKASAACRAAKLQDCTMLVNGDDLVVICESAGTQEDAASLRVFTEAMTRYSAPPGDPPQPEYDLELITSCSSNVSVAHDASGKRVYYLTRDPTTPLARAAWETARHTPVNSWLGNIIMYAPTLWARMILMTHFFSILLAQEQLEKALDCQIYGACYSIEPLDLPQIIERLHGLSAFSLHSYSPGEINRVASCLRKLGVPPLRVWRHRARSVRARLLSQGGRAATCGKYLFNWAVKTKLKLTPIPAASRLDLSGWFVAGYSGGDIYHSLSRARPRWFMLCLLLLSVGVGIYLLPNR

| SMILES | IC50 [µM] |
| --- | --- |
| C[C@H]1CC[C@H](C(=O)N(c2cc(-c3ccccc3)sc2C(=O)O)C2CCS(=O)(=O)CC2)CC1 [Compound 37, 3-[(1,1-Dioxo-tetrahydro-thiopyran-4-yl)-(trans-4-methyl-cyclohexanecarbonyl)-amino]-5-phenyl-thiophene-2-carboxylic acid] | < 5 |
| CC1CCC(C(=O)N(CC2CCN(C)CC2)c2cc(-c3ccccc3)sc2C(=O)O)CC1 (stereo not shown) [Compound 38, 4-{[(2-carboxy-5-phenyl-thiophen-3-yl)-(4-methyl-cyclohexanecarbonyl)-amino]-methyl}-1-methyl-piperidinium chloride] | < 5 |
| COc1ccc(CN2CCC(N(c3cc(-c4ccccc4)sc3C(=O)O)C(=O)[C@H]3CC[C@H](C)CC3)CC2=O)cc1 (stereo partly shown) [Compound 42, 3-[[1-(4-methoxy-benzyl)-2-oxo-piperidin-4-yl]-(4-methyl-cyclohexanecarbonyl)-amino]-5-phenyl-thiophene-2-carboxylic acid] | < 5 |
| CC1CCC(C(=O)N(c2cc(-c3cccc(F)c3)sc2C(=O)O)C(C)C)C(O)C1 (stereo not shown) [Compound 44, 5-(3-fluoro-phenyl)-3-[(2-hydroxy-4-methyl-cyclohexanecarbonyl)-isopropyl-amino]-thiophene-2-carboxylic acid] | < 5 |
| CO[C@H]1CC[C@H](N(c2cc(-c3ccccc3)sc2C(=O)O)C(=O)[C@H]2CC[C@H](C)CC2)CC1 [Compound 46, 3-[(4-methoxy-cyclohexyl)-(4-methyl-cyclohexanecarbonyl)-amino]-5-phenyl-thiophene-2-carboxylic acid] | < 5 |
| C[C@H]1CC[C@H](C(=O)N(c2cc(-c3ccccc3)sc2C(=O)O)[C@H]2CC[C@@H](O)CC2)CC1 [Compound 47, 3-[(4-methyl-cyclohexanecarbonyl)-(4-hydroxy-cyclohexyl)-amino]-5-phenyl-thiophene-2-carboxylic acid] | < 5 |
| CC(=O)N1CCC(N(C(=O)C2CCC(C)CC2)c2cc(-c3ccccc3)sc2C(=O)O)CC1 (stereo not shown) [Compound 48, 3-[(1-acetyl-piperidin-4-yl)-(4-methyl-cyclohexanecarbonyl)-amino]-5-phenyl-thiophene-2-carboxylic acid] | < 5 |
| CC1CCC(C(=O)N(c2cc(-c3ccccc3)sc2C(=O)O)C2CCC[NH+](C)CC2)CC1 (stereo not shown) [Compound 49, 4-[(2-carboxy-5-phenyl-thiophen-3-yl)-(4-methyl-cyclohexanecarbonyl)-amino]-1-methyl-azepanium chloride] | < 5 |
| C[C@H]1CC[C@H](C(=O)N(c2cc(-c3ccc(F)cc3)sc2C(=O)O)[C@H]2CC[C@H](O)CC2)CC1 [Compound 50, 5-(4-fluoro-phenyl)-3-[(4-hydroxy-cyclohexyl)-(4-methyl-cyclohexanecarbonyl)-amino]-thiophene-2-carboxylic acid] | < 5 |
| CC1CCC(C(=O)N(c2cc(-c3cccc(F)c3)sc2C(=O)O)C2CCC(O)CC2)CC1 (stereo not shown) [Compound 51, 5-(3-fluoro-phenyl)-3-[(4-hydroxy-cyclohexyl)-(4-methyl-cyclohexanecarbonyl)-amino]-thiophene-2-carboxylic acid] | < 5 |
| CC1=CCC(C(=O)N(c2cc(-c3ccc(F)cc3)sc2C(=O)O)C(C)C)CC1 (stereo not shown) [Compound 53, 5-(4-fluoro-phenyl)-3-[isopropyl-(4-methyl-cyclohex-3-enecarbonyl)-amino]-thiophene-2-carboxylic acid] | < 5 |
| CC1CCC(C(=O)N(c2cc(-c3ccc(Cl)cc3)sc2C(=O)O)C2CCC(O)CC2)CC1 (stereo not shown) [Compound 59, 5-(4-chloro-phenyl)-3-[(4-hydroxy-cyclohexyl)-(4-methyl-cyclohexanecarbonyl)-amino]-thiophene-2-carboxylic acid] | < 5 |
| COc1ccc(-c2cc(N(C(=O)C3CCC(C)CC3)C3CCC(O)CC3)c(C(=O)O)s2)cc1 (stereo not shown) [Compound 60, 3-[(4-hydroxy-cyclohexyl)-(4-methyl-cyclohexanecarbonyl)-amino]-5-(4-methoxy-phenyl)-thiophene-2-carboxylic acid] | < 5 |
| CC1CCC(C(=O)N(c2cc(-c3ccc(C#N)cc3)sc2C(=O)O)C2CCC(O)CC2)CC1 (stereo not shown) [Compound 61, 5-(4-cyano-phenyl)-3-[(4-hydroxy-cyclohexyl)-(4-methyl-cyclohexanecarbonyl)-amino]-thiophene-2-carboxylic acid] | < 5 |
| COc1ccc(-c2cc(N(C(=O)C3CCC(C)CC3O)C(C)C)c(C(=O)O)s2)cc1 (stereo not shown) [Compound 62, 3-[(2-hydroxy-4-methyl-cyclohexanecarbonyl)-isopropyl-amino]-5-(4-methoxy-phenyl)-thiophene-2-carboxylic acid] | < 5 |
| CC1CCC(C(=O)N(c2cc(-c3ccccc3)sc2C(=O)O)C2CCN(C=O)CC2)CC1 (stereo not shown) [Compound 63, 3-[(1-formyl-piperidin-4-yl)-(4-methyl-cyclohexanecarbonyl)-amino]-5-phenyl-thiophene-2-carboxylic acid] | < 5 |
| CC1CCC(C(=O)N(c2cc(-c3ccccc3)sc2C(=O)O)N(C)C)CC1 (stereo not shown) [Compound 64, 3-[N′,N′-dimethyl-n-(4-methyl-cyclohexanecarbonyl)-hydrazino]-5-phenyl-thiophene-2-carboxylic acid] | < 5 |
| CC1CCC(C(=O)N(CC2CCCN(C)C2)c2cc(-c3ccc(F)cc3)sc2C(=O)O)CC1 (stereo not shown) [Compound 69, 5-(4-fluorophenyl)-((4-methyl-cyclohexanecarbonyl)-1-(methyl-piperidin-3-ylmethyl)-amino)-thiophene-2-carboxylic acid] | < 5 |
| CS(=O)(=O)N1CCC(N(c2cc(-c3ccccc3)sc2C(=O)O)C(=O)[C@H]2CC[C@H](C)CC2)CC1 [Compound 70, 3-[(1-methanesulfonyl-piperidin-4-yl)-(4-methyl-cyclohexanecarbonyl)-amino]-5-phenyl-thiophene-2-carboxylic acid] | < 5 |
| CNC(=O)N1CCC(N(C(=O)C2CCC(C)CC2)c2cc(-c3ccccc3)sc2C(=O)O)CC1 (stereo not shown) [Compound 71, 3-[(1-methylcarbamoyl-piperidin-4-yl)-(4-methyl-cyclohexanecarbonyl)-amino]-5-phenyl-thiophene-2-carboxylic acid] | < 5 |
| CN(C)N(C(=O)c1ccc(Cl)cc1Cl)c1cc(-c2ccccc2)sc1C(=O)O [Compound 72, 3-[n-(2,4-dichloro-benzoyl)-N′,N′-dimethyl-hydrazino]-5-phenyl-thiophene-2-carboxylic acid] | < 5 |
| C[C@H]1CC[C@H](C(=O)N(c2cc(-c3ccc(F)cc3)sc2C(=O)O)[C@H]2CC[C@@H](O)CC2)CC1 [Compound 73, 5-(4-fluoro-phenyl)-3-[(4-hydroxy-cyclohexyl)-(4-methyl-cyclohexanecarbonyl)-amino]-thiophene-2-carboxylic acid] | < 5 |
| CC1CCC(C(=O)N(c2cc(-c3ccccc3)sc2C(=O)O)[C@H]2CC[C@H](C(=O)O)CC2)CC1 (stereo partly shown) [Compound 76, 3-[(4-carboxy-cyclohexyl)-(4-methyl-cyclohexanecarbonyl)-amino]-5-phenyl-thiophene-2-carboxylic acid] | < 5 |
| CC1CCC(C(=O)N(c2cc(-c3ccccc3)sc2C(=O)O)C2CCN(C#N)CC2)CC1 (stereo not shown) [Compound 77, 3-[(1-cyano-piperidin-4-yl)-(4-methyl-cyclohexanecarbonyl)-amino]-5-phenyl-thiophene-2-carboxylic acid] | < 5 |
| CC1CCC(C(=O)N(c2cc(-c3ccccc3)sc2C(=O)O)[C@H]2CC[C@@H](C(=O)O)CC2)CC1 (stereo partly shown) [Compound 78, 3-[(4-carboxy-cyclohexyl)-(4-methyl-cyclohexanecarbonyl)-amino]-5-phenyl-thiophene-2-carboxylic acid] | < 5 |
| C[C@H]1CC[C@H](C(=O)N(c2cc(-c3ccc(F)c(F)c3)sc2C(=O)O)[C@H]2CC[C@H](O)CC2)CC1 [Compound 79, 5-(3,4-difluoro-phenyl)-3-[(4-hydroxy-cyclohexyl)-(4-methyl-cyclohexanecarbonyl)-amino]-thiophene-2-carboxylic acid] | < 5 |
| CC(=O)c1ccc(-c2cc(N(C(=O)[C@H]3CC[C@H](C)CC3)[C@H]3CC[C@H](O)CC3)c(C(=O)O)s2)s1 [Compound 80, 5′-acetyl-4-[(4-hydroxy-cyclohexyl)-(4-methyl-cyclohexanecarbonyl)-amino]-[2,2′]bithiophenyl-5-carboxylic acid] | < 5 |
| CC1CCC(C(=O)N(c2cc(-c3ccccc3)sc2C(=O)O)C2CCN(C(N)=O)CC2)CC1 (stereo not shown) [Compound 81, 3-[(1-carbamoyl-piperidin-4-yl)-(4-methyl-cyclohexanecarbonyl)-amino]-5-phenyl-thiophene-2-carboxylic acid] | < 5 |
| CCN(C(=O)c1ccc(C)cc1)c1cc(-c2ccccc2)sc1C(=O)O [Compound 84, 3-[ethyl-(4-methyl-benzoyl)-amino]-5-phenyl-thiophene-2-carboxylic acid] | < 5 |

Same assay, conditions: read-out: Activity (polymerase activity, IC50)

| SMILES | IC50 [µM] |
| --- | --- |
| CC1CCC(C(=O)N(c2cc(-c3ccccc3)sc2C(=O)O)C(C)CN=[N+]=[N-])CC1 (stereo not shown) [Compound 43, 3-[(2-azido-1-methyl-ethyl)-(4-methyl-cyclohexanecarbonyl)-amino]-5-phenyl-thiophene-2-carboxylic acid] | < 5 |
| CNC(=O)N1CCC(N(C(=O)C2CCC(C)CC2)c2cc(-c3ccccc3)sc2C(=O)O)CC1 (stereo not shown) [Compound 74, 3-[(1-methylcarbamoyl-piperidin-4-yl)-(4-methyl-cyclohexanecarbonyl)-amino]-5-phenyl-thiophene-2-carboxylic acid] | < 5 |
| CC1CCC(C(=O)N(c2cc(-c3ccccc3)sc2C(=O)O)C2CCN(C)C(=O)C2)CC1 (stereo not shown) [Compound 75, 3-[(4-methyl-cyclohexanecarbonyl)-(1-methyl-2-oxo-piperidin-4-yl)-amino]-5-phenyl-thiophene-2-carboxylic acid] | < 5 |
| CC1CCC(C(=O)N(c2cc(-c3ccccc3)sc2C(=O)O)C2CCNC(=O)CC2)CC1 (stereo not shown) [Compound 82, 3-[(4-methyl-cyclohexanecarbonyl)-(7-oxo-azepan-4-yl)-amino]-5-phenyl-thiophene-2-carboxylic acid] | < 5 |
| CC1CCC(C(=O)N(c2cc(-c3ccccc3)sc2C(=O)O)C2CCN(C(=O)C(N)=O)CC2)CC1 (stereo not shown) [Compound 83, 3-[(1-aminooxalyl-piperidin-4-yl)-(4-methyl-cyclohexanecarbonyl)-amino]-5-phenyl-thiophene-2-carboxylic acid] | < 5 |
